Read-outs that look alike come from different tables or passages of the source.
Assays:
[1] = target: T1, MraYAA (phospho-MurNAc-pentapeptide translocase, MraY) (Aquifex aeolicus, UniProt O66465); test: X-ray crystal structure ([…] Å); UMP-Glo enzyme inhibition IC50; format: biochemical
T1 construct: Codon-optimized His-MBP-PreScission fusion, E. coli C41(DE3), DDM-extracted, tag cleaved; IC50 on MraYAA alone (NB7 only in crystals)
T1 sequence (O66465 1-359): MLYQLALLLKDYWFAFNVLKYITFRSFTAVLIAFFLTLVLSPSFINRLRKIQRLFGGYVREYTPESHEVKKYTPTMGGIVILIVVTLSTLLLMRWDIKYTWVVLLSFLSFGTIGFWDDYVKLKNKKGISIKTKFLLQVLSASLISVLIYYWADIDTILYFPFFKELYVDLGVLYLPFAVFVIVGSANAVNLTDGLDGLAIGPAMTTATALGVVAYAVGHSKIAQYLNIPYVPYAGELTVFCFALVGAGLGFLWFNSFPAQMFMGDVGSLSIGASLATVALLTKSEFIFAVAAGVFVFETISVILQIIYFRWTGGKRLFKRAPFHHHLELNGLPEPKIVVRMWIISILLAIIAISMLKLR

[2] = target: T1, MraYAA (phospho-MurNAc-pentapeptide translocase, MraY); test: as above; format: biochemical; remark: listed apart in the source

IC50 [1] [nM]	IC50 [2] [nM]	Structure (SMILES)
52	–	CSCC[C@H](NC(=O)N[C@@H](Cc1cccc(O)c1)C(=O)O)C(=O)N[C@H](C(=O)N/C=C1/O[C@@H](n2ccc(=O)[nH]c2=O)[C@H](O)[C@@H]1O)[C@H](C)N(C)C(=O)[C@@H](N)Cc1cccc(O)c1 [3′-hydroxymureidomycin A]
–	185	CO[C@H]1[C@@H](O)[C@H](n2ccc(=O)[nH]c2=O)O[C@@H]1[C@@H](O[C@H]1OC(C(=O)N[C@H]2CCCCNC2=O)=C[C@H](O)[C@@H]1O)C(N)=O [capuramycin]

Source: paper PMC6606608, “Chemical logic of MraY inhibition by antibacterial nucleoside natural products” (Nature Communications, 2019)
